Data reported in patent publication US12281080B2, “Quinoline-based compounds and methods of inhibiting CDK8/19” (University of South Carolina, priority 2018, dated 2025).
pIC50: −log10 of the molar value.

Experiments:
ABL1-phosphorylated = ABL1-phosphorylated (Homo sapiens (Human), UniProt P00519); test: KINOMEscan scanMAX; format: binding; conditions: 2000 nM; read-out: Percent Control
BMX = BMX (Homo sapiens (Human), UniProt P51813); test: KINOMEscan scanMAX; format: binding; conditions: 2000 nM; read-out: Percent Control
CAMK2A = CAMK2A (Homo sapiens (Human), UniProt Q9UQM7); test: KINOMEscan scanMAX; format: binding; conditions: 2000 nM; read-out: Percent Control
CDKL1 = CDKL1 (Homo sapiens (Human), UniProt Q00532); test: KINOMEscan scanMAX; format: binding; conditions: 2000 nM; read-out: Percent Control
CDKL3 = CDKL3 (Homo sapiens (Human), UniProt Q8IVW4); test: KINOMEscan scanMAX; format: binding; conditions: 2000 nM; read-out: Percent Control
CLK2 = CLK2 (Homo sapiens (Human), UniProt P49760); test: KINOMEscan scanMAX; format: binding; conditions: 2000 nM; read-out: Percent Control
CSNK1A1 = CSNK1A1 (Homo sapiens (Human), UniProt P48729); test: KINOMEscan scanMAX; format: binding; conditions: 2000 nM; read-out: Percent Control
DCAMKL1 (DCLK1) = DCAMKL1 (DCLK1) (Homo sapiens (Human), UniProt O15075); test: KINOMEscan scanMAX; format: binding; conditions: 2000 nM; read-out: Percent Control
EGFR(S752-1759del) = EGFR(S752-1759del) (Homo sapiens (Human), UniProt P00533, DEL752-759); test: KINOMEscan scanMAX; format: binding; conditions: 2000 nM; read-out: Percent Control
EGFR(T790M) = EGFR(T790M) (Homo sapiens (Human), UniProt P00533, T790M); test: KINOMEscan scanMAX; format: binding; conditions: 2000 nM; read-out: Percent Control
EPHA8 = EPHA8 (Homo sapiens (Human), UniProt P29322); test: KINOMEscan scanMAX; format: binding; conditions: 2000 nM; read-out: Percent Control
EPHB3 = EPHB3 (Homo sapiens (Human), UniProt P54753); test: KINOMEscan scanMAX; format: binding; conditions: 2000 nM; read-out: Percent Control
FLT3(ITD) = test: KINOMEscan scanMAX; format: binding, human; conditions: 2000 nM
GRK1 = GRK1 (Homo sapiens (Human), UniProt Q15835); test: KINOMEscan scanMAX; format: binding; conditions: 2000 nM; read-out: Percent Control
HIPK1 = HIPK1 (Homo sapiens (Human), UniProt Q86Z02); test: KINOMEscan scanMAX; format: binding; conditions: 2000 nM; read-out: Percent Control
IRAK1 = IRAK1 (Homo sapiens (Human), UniProt P51617); test: KINOMEscan scanMAX; format: binding; conditions: 2000 nM; read-out: Percent Control
LRRK2(G2019S) = LRRK2(G2019S) (Homo sapiens (Human), UniProt Q5S007, G2019S); test: KINOMEscan scanMAX; format: binding; conditions: 2000 nM; read-out: Percent Control
MAP4K4 = MAP4K4 (Homo sapiens (Human), UniProt O95819); test: KINOMEscan scanMAX; format: binding; conditions: 2000 nM; read-out: Percent Control
MARK2 = MARK2 (Homo sapiens (Human), UniProt Q7KZI7); test: KINOMEscan scanMAX; format: binding; conditions: 2000 nM; read-out: Percent Control
PCTK2 (CDK17) = PCTK2 (CDK17) (Homo sapiens (Human), UniProt Q00537); test: KINOMEscan scanMAX; format: binding; conditions: 2000 nM; read-out: Percent Control
PHKG1 = PHKG1 (Homo sapiens (Human), UniProt Q16816); test: KINOMEscan scanMAX; format: binding; conditions: 2000 nM; read-out: Percent Control
PIKFYVE = PIKFYVE (Homo sapiens (Human), UniProt Q9Y2I7); test: KINOMEscan scanMAX; format: binding; conditions: 2000 nM; read-out: Percent Control
PLK4 = PLK4 (Homo sapiens (Human), UniProt O00444); test: KINOMEscan scanMAX; format: binding; conditions: 2000 nM; read-out: Percent Control
PRKD1 = PRKD1 (Homo sapiens (Human), UniProt Q15139); test: KINOMEscan scanMAX; format: binding; conditions: 2000 nM; read-out: Percent Control
RIOK1 = RIOK1 (Homo sapiens (Human), UniProt Q9BRS2); test: KINOMEscan scanMAX; format: binding; conditions: 2000 nM; read-out: Percent Control
RIOK2 = RIOK2 (Homo sapiens (Human), UniProt Q9BVS4); test: KINOMEscan scanMAX; format: binding; conditions: 2000 nM; read-out: Percent Control
[1] = target: RSK2(Kin.Dom.2-C-terminal) (RPS6KA3) (Homo sapiens (Human), UniProt P51812); test: KINOMEscan scanMAX; format: binding; conditions: 2000 nM; read-out: Percent Control
TAK1 (MAP3K7) = TAK1 (MAP3K7) (Homo sapiens (Human), UniProt O43318); test: KINOMEscan scanMAX; format: binding; conditions: 2000 nM; read-out: Percent Control
TLK1 = TLK1 (Homo sapiens (Human), UniProt Q9UKI8); test: KINOMEscan scanMAX; format: binding; conditions: 2000 nM; read-out: Percent Control
TLK2 = TLK2 (Homo sapiens (Human), UniProt Q86UE8); test: KINOMEscan scanMAX; format: binding; conditions: 2000 nM; read-out: Percent Control
TSSK3 = TSSK3 (Homo sapiens (Human), UniProt Q96PN8); test: KINOMEscan scanMAX; format: binding; conditions: 2000 nM; read-out: Percent Control
TXK = TXK (Homo sapiens (Human), UniProt P42681); test: KINOMEscan scanMAX; format: binding; conditions: 2000 nM; read-out: Percent Control
[2] = target: TYK2(JH1domain-catalytic) (Homo sapiens (Human), UniProt P29597); test: KINOMEscan scanMAX; format: binding; conditions: 2000 nM; read-out: Percent Control
WNK1 = WNK1 (Homo sapiens (Human), UniProt Q9H4A3); test: KINOMEscan scanMAX; format: binding; conditions: 2000 nM; read-out: Percent Control
WNK3 = WNK3 (Homo sapiens (Human), UniProt Q9BYP7); test: KINOMEscan scanMAX; format: binding; conditions: 2000 nM; read-out: Percent Control
[3] = Mouse pharmacokinetics, intraperitoneal, serum; format: in vivo, mice
Procedure: […] Blood samples were collected at different time points (5 mice per time point) and Senexin C concentration in the serum was measured by LC/MS/MS.

[4] = target: CDK8 in complex with Cyclin C (Homo sapiens (Human), UniProt P49336); test: LanthaScreen Eu Kinase Binding Assay
Description: The binding of the tracer to the kinase is detected using a europium-labeled anti-tag antibody, which binds to the kinase of interest. […] The binding of an inhibitor to the kinase competes for binding with the tracer, resulting in a loss of FRET.

Chain of CLK2 (P49760 whole entry): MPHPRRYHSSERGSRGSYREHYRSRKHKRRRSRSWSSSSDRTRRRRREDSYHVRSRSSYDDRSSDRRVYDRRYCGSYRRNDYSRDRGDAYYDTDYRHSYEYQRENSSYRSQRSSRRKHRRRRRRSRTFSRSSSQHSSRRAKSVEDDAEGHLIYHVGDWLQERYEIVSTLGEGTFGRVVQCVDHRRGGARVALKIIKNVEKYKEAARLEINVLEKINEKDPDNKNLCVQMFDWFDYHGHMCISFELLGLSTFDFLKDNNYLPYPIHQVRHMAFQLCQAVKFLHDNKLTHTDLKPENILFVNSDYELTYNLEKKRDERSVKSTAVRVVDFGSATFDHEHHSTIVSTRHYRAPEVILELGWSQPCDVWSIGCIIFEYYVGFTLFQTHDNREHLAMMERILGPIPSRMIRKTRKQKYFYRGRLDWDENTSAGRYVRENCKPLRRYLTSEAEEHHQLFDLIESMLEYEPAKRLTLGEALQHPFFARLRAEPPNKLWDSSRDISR
Chain of EPHA8 (P29322 28-1005): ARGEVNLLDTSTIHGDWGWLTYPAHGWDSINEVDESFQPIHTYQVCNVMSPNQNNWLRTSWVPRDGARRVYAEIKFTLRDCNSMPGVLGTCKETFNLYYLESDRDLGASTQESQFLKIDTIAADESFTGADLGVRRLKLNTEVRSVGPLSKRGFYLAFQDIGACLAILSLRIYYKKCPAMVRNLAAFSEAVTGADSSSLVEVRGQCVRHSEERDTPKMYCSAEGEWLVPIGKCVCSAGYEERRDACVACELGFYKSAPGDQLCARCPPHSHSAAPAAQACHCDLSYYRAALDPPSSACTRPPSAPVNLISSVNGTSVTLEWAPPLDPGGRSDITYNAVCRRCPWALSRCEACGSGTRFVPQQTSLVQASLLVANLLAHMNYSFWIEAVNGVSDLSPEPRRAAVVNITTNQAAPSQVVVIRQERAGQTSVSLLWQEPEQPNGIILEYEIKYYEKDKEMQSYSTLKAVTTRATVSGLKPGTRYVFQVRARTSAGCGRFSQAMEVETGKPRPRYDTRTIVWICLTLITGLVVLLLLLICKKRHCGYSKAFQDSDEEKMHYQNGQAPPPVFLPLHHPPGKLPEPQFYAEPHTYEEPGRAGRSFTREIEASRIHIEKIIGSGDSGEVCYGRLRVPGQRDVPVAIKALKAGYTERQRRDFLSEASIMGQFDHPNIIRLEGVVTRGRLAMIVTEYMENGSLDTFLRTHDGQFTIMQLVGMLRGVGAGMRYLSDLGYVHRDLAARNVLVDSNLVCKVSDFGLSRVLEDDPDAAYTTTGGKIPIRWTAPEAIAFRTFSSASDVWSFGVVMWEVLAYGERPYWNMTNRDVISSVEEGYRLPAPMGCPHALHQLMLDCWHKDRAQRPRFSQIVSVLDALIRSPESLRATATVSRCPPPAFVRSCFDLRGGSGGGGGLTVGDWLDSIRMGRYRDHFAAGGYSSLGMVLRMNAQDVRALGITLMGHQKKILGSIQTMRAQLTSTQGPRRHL
Chain of TSSK3 (Q96PN8 whole entry): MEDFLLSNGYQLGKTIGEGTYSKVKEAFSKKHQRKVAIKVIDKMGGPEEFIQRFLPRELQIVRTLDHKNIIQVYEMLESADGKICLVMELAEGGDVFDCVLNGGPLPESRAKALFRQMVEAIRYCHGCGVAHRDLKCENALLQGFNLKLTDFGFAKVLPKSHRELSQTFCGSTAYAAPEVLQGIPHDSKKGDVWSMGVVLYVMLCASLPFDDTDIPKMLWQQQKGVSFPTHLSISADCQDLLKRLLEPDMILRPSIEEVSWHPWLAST
Chain of HIPK1 (Q86Z02 whole entry): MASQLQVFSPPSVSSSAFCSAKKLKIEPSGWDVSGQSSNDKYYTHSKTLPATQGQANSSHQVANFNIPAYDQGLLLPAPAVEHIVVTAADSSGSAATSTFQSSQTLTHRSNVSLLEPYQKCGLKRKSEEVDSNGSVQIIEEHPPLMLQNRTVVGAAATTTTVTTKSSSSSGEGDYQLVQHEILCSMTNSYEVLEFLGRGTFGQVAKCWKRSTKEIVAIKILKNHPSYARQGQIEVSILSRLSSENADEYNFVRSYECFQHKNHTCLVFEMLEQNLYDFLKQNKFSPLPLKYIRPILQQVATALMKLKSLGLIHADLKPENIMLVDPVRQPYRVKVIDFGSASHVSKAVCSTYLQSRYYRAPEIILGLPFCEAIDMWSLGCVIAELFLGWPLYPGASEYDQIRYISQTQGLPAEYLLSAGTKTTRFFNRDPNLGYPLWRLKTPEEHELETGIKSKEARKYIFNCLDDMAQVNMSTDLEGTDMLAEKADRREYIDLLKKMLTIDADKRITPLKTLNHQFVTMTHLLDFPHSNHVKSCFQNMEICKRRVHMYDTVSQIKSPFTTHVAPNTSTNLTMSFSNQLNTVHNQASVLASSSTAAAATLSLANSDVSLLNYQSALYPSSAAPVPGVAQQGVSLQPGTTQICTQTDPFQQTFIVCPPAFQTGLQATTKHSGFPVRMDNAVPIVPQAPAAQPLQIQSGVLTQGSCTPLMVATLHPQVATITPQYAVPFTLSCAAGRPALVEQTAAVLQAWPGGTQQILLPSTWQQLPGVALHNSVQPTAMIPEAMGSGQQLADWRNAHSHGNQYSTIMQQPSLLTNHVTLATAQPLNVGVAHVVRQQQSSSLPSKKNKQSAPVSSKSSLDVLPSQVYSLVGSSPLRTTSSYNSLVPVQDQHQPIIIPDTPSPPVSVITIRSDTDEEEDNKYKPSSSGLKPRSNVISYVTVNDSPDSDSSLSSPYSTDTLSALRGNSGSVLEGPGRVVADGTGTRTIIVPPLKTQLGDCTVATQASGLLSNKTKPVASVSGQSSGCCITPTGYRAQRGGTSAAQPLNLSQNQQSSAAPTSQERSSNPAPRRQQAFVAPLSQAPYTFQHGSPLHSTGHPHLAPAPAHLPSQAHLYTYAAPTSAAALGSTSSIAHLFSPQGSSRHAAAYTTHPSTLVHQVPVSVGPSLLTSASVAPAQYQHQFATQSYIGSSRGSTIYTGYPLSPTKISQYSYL
Chain of ABL1-phosphorylated (P00519 whole entry): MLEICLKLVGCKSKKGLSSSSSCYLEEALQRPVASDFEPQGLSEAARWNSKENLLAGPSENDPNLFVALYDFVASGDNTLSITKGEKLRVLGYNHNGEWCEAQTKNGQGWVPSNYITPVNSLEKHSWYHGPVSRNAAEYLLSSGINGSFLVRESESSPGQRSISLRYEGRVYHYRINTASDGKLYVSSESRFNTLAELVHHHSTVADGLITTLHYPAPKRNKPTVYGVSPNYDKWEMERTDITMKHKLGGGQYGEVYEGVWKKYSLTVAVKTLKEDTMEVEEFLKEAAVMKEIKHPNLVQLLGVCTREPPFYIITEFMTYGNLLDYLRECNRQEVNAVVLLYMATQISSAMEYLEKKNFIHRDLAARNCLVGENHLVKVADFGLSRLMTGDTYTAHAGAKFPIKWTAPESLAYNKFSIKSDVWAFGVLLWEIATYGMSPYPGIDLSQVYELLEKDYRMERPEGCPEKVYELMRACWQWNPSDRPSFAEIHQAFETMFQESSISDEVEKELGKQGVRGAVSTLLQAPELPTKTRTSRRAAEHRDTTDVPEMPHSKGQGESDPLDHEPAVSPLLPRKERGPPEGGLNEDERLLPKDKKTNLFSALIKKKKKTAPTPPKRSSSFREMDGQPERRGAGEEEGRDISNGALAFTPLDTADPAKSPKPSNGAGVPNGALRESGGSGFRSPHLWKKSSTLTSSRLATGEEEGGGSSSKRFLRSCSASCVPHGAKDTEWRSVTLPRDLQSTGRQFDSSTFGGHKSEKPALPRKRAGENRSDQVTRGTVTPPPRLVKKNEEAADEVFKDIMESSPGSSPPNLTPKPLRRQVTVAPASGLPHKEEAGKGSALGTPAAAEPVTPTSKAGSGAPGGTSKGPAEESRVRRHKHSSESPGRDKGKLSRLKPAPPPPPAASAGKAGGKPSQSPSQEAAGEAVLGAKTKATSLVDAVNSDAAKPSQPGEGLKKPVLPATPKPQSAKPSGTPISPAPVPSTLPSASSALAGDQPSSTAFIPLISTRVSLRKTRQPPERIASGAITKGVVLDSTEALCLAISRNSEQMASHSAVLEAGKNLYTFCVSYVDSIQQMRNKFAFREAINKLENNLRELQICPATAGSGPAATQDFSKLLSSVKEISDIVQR
Chain of PCTK2 (CDK17) (Q00537 whole entry): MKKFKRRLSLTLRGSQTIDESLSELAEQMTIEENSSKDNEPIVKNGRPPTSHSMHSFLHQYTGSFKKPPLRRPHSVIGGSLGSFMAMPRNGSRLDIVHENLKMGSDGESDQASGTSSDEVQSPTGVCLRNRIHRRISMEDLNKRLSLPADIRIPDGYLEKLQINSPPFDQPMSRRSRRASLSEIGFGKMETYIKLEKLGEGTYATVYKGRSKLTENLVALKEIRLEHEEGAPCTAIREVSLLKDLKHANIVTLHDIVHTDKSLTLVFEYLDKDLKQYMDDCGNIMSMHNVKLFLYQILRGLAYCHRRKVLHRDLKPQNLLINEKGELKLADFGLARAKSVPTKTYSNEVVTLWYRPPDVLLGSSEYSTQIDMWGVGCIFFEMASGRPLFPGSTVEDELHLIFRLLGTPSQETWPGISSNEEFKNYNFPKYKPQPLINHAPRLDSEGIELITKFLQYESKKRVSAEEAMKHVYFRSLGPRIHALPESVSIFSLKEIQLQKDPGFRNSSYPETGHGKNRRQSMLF
Chain of CDKL1 (Q00532 whole entry): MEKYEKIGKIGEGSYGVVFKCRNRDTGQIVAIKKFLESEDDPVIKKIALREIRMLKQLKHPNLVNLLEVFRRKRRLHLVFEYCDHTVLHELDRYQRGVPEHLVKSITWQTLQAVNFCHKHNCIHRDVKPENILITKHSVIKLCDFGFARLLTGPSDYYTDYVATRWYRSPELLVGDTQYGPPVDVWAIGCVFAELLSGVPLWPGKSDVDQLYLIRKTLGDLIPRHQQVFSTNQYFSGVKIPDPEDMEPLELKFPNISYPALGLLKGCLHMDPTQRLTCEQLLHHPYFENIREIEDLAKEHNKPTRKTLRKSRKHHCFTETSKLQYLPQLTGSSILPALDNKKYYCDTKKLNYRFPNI

CN1CCN(C(=O)c2ccc3cc(CCNc4ccnc5ccc(C#N)cc45)ccc3c2)CC1 [compound 6148, 4-((2-(6-(4-methylpiperazine-1-carbonyl)naphthalen-2-yl)ethyl)amino)quinoline-6-carbonitrile]
remaining binding at 2 µM (ABL1-phosphorylated): 67% | remaining binding at 2 µM (BMX): 100% | remaining binding at 2 µM (CAMK2A): 100% | remaining binding at 2 µM (CDKL1): 94% | remaining binding at 2 µM (CDKL3): 87% | remaining binding at 2 µM (CLK2): 93% | remaining binding at 2 µM (CSNK1A1): 76% | remaining binding at 2 µM (DCAMKL1 (DCLK1)): 63% | remaining binding at 2 µM (EGFR(S752-1759del)): 99% | remaining binding at 2 µM (EGFR(T790M)): 93% | remaining binding at 2 µM (EPHA8): 91% | remaining binding at 2 µM (EPHB3): 81% | Percent Control (FLT3(ITD)): 97% | remaining binding at 2 µM (GRK1): 63% | remaining binding at 2 µM (HIPK1): 73% | remaining binding at 2 µM (IRAK1): 45% | remaining binding at 2 µM (LRRK2(G2019S)): 56% | remaining binding at 2 µM (MAP4K4): 93% | remaining binding at 2 µM (MARK2): 100% | remaining binding at 2 µM (PCTK2 (CDK17)): 98% | remaining binding at 2 µM (PHKG1): 95% | remaining binding at 2 µM (PIKFYVE): 86% | remaining binding at 2 µM (PLK4): 90% | remaining binding at 2 µM (PRKD1): 90% | remaining binding at 2 µM (RIOK1): 94% | remaining binding at 2 µM (RIOK2): 64% | remaining binding at 2 µM [1]: 65% | remaining binding at 2 µM (TAK1 (MAP3K7)): 63% | remaining binding at 2 µM (TLK1): 94% | remaining binding at 2 µM (TLK2): 88% | remaining binding at 2 µM (TSSK3): 81% | remaining binding at 2 µM (TXK): 94% | remaining binding at 2 µM [2]: 62% | remaining binding at 2 µM (WNK1): 72% | remaining binding at 2 µM (WNK3): 75% | elimination rate k ([3]; i.p. 19 mg/kg, female FVB mice): 0.94 h⁻¹ | t1/2 ([3]; i.p. 19 mg/kg, female FVB mice): 44.4 min | Half-life higher than Senexin B ([3]; i.p., mice): > 4 fold | half-life ([3]; mouse, serum, ip, i.p. 19 mg/kg, female FVB mice): 44.4 min | AUC ([3]; mouse, serum, ip, i.p. 19 mg/kg, female FVB mice, read-out: AUC): 1570 ng·h/mL | Cmax ([3]; mouse, serum, ip, i.p. 19 mg/kg, female FVB mice, read-out: Cmax): 1160 ng/mL | bioavailability ([3]; mouse, serum, ip, i.p. 19 mg/kg, female FVB mice, read-out: bioavailability (F %)): 73% | pIC50 [4]: 8.42
